{"source": "paper PMC10011573", "about": "“Development of novel broad-spectrum antimicrobial lipopeptides derived from plantaricin NC8 β” (Scientific Reports, 2023)", "key": {"S. aureus": {"tested_on": "S. aureus", "description": "(§1) In order to evaluate the risk of the development of resistance towards the lipopeptide, a serial passage assay was conducted. […] MIC and MBC were determined for passages 0, 10, 20 and 30, using the broth microdilution method and compared with the unexposed bacteria (passage 0)."}, "E. coli": {"tested_on": "E. coli", "description": "as §1"}, "human erythrocytes": {"tested_on": "human erythrocytes", "assay": "Hemolytic activity", "type": "cell-based", "details": "15% suspension in PBS, 1 h, 37 °C, absorbance 540 nm, highest tested concentration 100 µM"}, "E. coli (K-12 MG1655)": {"tested_on": "E. coli (K-12 MG1655)", "type": "cell-based", "details": "K-12, 20 h"}, "[1]": {"assay": "Carboxyfluorescein release assay, bacterial liposome model", "type": "biochemical", "details": "75:25 POPC:POPG liposomes, 25 µM lipid, 10 mM PBS pH 7.4, 10^–5–10^2 µM peptide, 60 min, fluorescence, Hill fit, n = 3; read-out: EC50 Bacterial (concentration that triggers 50% CF release)", "method_in_brief": "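CF-loaded extruded 0.1 µm unilamellar liposomes: bacterial POPC:POPG 75:25, mammalian POPC:POPS:Chol 65:5:30. Liposomes at 25 µM lipid in PBS pH 7.4 incubated with peptide (10^–5–10^2 µM; n = 3), fluorescence read every 2.5 min for 1 h. Release normalized to 1% Triton X-100; EC50 from Hill-1 fit.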"}, "[2]": {"assay": "Dynamic light scattering, critical aggregation concentration", "type": "physicochemical", "details": "DLS scattering intensity at 90°, 10 mM PBS pH 7.4, serial dilution 100 µM to 0.01 nM, 22 °C, average of 10 runs of 30 s; estimated", "description": "Lipopeptide aggregation was evaluated on a ALV/CGS-8F Platform (ALV-GmbH, Langen, Germany) equipped with a […] He–Ne laser. Scattered light was collected at 90°. PBS (10 mM, pH 7.4) was chosen as buffer, and filtered with a 0.22 µm filter prior to use. The samples were prepared in a cylindrical glass cuvette immersed in refractive-index matching toluene. The peptides were serially diluted between 100 µM and 0.01 nM, sonicated for 1 min and incubated for 5 min at 22 °C and vortexed prior to measuring. The temperature was controlled throughout the experiment with the use of a circulating water bath. Data were analysed with ALV-Correlator (Version 3.0, ALV-GmbH, Langen, Germany) software, and the scattering intensity was obtained through an average of 10 consecutive 30 s runs."}, "[3]": {"details": "S. aureus p0 (unexposed bacteria, passage 0)"}, "[4]": {"details": "S. aureus p10, cultured with 1 µM L-6-C5 in LB-broth"}, "[5]": {"details": "S. aureus p20, cultured with 1 µM L-6-C5 in LB-broth"}, "[6]": {"details": "S. aureus p30, cultured with 1 µM L-6-C5 in LB-broth"}, "[7]": {"details": "E. coli p0 (unexposed bacteria, passage 0)"}, "[8]": {"details": "E. coli p10, cultured with 1 µM L-6-C5 in LB-broth"}, "[9]": {"details": "E. coli p20, cultured with 1 µM L-6-C5 in LB-broth"}, "[10]": {"details": "E. coli p30, cultured with 1 µM L-6-C5 in LB-broth"}}, "note": "Where two headings read alike, the source gives them in different places. Residues, ends and D or L forms follow the SMILES beside them. *: point of attachment. Pentanoyl = CCCCC(=O)*"}
{"smiles": "CCCCC(=O)N[C@@H](CC(C)C)C(=O)NCC(=O)N[C@H](C(=O)N[C@@H](CCCCN)C(=O)N[C@H](C(=O)N[C@@H](CC(C)C)C(=O)N[C@@H](Cc1c[nH]c2ccccc12)C(=O)N[C@@H](CO)C(=O)N[C@@H](C)C(=O)N[C@@H](Cc1ccc(O)cc1)C(=O)N[C@@H](CCCCN)C(=O)N[C@@H](Cc1c[nH]cn1)C(=O)N[C@@H](CCCNC(=N)N)C(=O)N[C@@H](CCCCN)C(=O)N[C@H](C(=O)N[C@H](C(N)=O)[C@@H](C)CC)[C@@H](C)O)[C@@H](C)CC)[C@@H](C)CC", "note": "[L-6-C5] (Pentanoyl-LGIKILWSAYKHRKTI-NH2)", "values": [{"measurement": "MBC", "setting": "S. aureus; [3]", "result": 6.3, "unit": "µM"}, {"measurement": "MIC", "setting": "S. aureus; [3]", "result": 6.3, "unit": "µM"}, {"measurement": "MBC", "setting": "S. aureus; [4]", "result": 6.3, "unit": "µM"}, {"measurement": "MIC", "setting": "S. aureus; [4]", "result": 6.3, "unit": "µM"}, {"measurement": "MBC", "setting": "S. aureus; [5]", "result": 6.3, "unit": "µM"}, {"measurement": "MIC", "setting": "S. aureus; [5]", "result": 6.3, "unit": "µM"}, {"measurement": "MBC", "setting": "S. aureus; [6]", "result": 6.3, "unit": "µM"}, {"measurement": "MIC", "setting": "S. aureus; [6]", "result": 6.3, "unit": "µM"}, {"measurement": "MBC", "setting": "E. coli; [7]", "result": 6.3, "unit": "µM"}, {"measurement": "MIC", "setting": "E. coli; [7]", "result": 6.3, "unit": "µM"}, {"measurement": "MBC", "setting": "E. coli; [8]", "result": 6.3, "unit": "µM"}, {"measurement": "MIC", "setting": "E. coli; [8]", "result": 6.3, "unit": "µM"}, {"measurement": "MBC", "setting": "E. coli; [9]", "result": 6.3, "unit": "µM"}, {"measurement": "MIC", "setting": "E. coli; [9]", "result": 6.3, "unit": "µM"}, {"measurement": "MBC", "setting": "E. coli; [10]", "result": 6.3, "unit": "µM"}, {"measurement": "MIC", "setting": "E. coli; [10]", "result": 6.3, "unit": "µM"}, {"measurement": "HC, hemolytic concentration at 5% hemolytic activity", "setting": "human erythrocytes", "result": "> 100", "unit": "µM"}, {"measurement": "E. coli MBC, lipopeptide alone", "setting": "E. coli (K-12 MG1655)", "result": 6.25, "unit": "µM"}, {"measurement": "E. coli MIC, lipopeptide alone", "setting": "E. coli (K-12 MG1655)", "result": 6.25, "unit": "µM"}, {"measurement": "EC50", "setting": "[1]", "result": 110, "unit": "nM"}, {"measurement": "critical aggregation concentration (CAC)", "setting": "[2]", "result": 5.6, "unit": "µM"}]}
